Results published in article PMC3262007, “A Fluorescence-Based High-Throughput Assay for the Discovery of Exchange Protein Directly Activated by Cyclic AMP (EPAC) Antagonists” (PLoS ONE, 2012).
Each block holds one compound with its values, some of them ahead of it.

What was measured:
[1] = target: T1, EPAC2 (Mus musculus, UniProt Q9EQZ6); experiment: 8-NBD-cAMP competition / primary screen fluorescence assay; assay type: binding; conditions: for dose response of EPAC2/8-NBD-cAMP fluorescence signal: dose-dependent response, Figure 2; for IC50: competition with 8-NBD-cAMP in binding to EPAC2
T1 construct: when titrated with purified full-length EPAC2; made in house
T1 sequence (Q9EQZ6 1-993 isoform Q9EQZ6-3): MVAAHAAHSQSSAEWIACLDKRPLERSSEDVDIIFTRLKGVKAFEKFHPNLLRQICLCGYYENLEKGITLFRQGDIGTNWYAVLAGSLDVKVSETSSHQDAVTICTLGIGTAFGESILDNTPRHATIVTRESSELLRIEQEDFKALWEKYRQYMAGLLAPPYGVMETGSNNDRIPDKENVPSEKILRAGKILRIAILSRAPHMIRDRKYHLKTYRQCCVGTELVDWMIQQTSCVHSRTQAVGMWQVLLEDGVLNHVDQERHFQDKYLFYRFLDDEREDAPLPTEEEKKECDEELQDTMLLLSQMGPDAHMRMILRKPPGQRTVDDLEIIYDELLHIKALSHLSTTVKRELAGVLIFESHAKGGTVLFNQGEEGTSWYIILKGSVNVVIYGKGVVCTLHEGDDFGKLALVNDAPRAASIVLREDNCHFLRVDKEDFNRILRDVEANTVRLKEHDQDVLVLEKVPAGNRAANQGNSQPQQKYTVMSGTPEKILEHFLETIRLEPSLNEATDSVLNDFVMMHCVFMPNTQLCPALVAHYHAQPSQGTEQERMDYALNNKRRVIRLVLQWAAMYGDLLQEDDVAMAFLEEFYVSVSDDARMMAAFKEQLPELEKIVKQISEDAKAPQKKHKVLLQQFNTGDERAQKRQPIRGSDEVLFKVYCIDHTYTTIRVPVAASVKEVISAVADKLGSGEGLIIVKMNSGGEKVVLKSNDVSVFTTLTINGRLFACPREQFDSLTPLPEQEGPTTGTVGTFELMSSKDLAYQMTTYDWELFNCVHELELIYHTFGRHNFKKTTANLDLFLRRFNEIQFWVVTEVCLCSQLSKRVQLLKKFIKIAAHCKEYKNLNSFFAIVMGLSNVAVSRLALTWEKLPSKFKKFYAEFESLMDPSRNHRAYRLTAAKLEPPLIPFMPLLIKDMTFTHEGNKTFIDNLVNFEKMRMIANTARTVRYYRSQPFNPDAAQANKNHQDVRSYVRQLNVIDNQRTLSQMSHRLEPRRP
Method: Primary screen of NCI DTP (Developmental Therapeutics Program) diversity set library was performed in black 96-well microplates from Corning Costar (Cambridge, MA, USA). Briefly, 50 nM EPAC2 solution was prepared in 20 mM Tris buffer, pH 7.5, containing 150 mM NaCl, 1 mM EDTA and 1 mM […]. […] Test compounds were added from 10 mM stock solutions in DMSO. […] Fluorescence intensity signal from 8-NBD probe was recorded at room temperature before and after tested compounds were added using SpectaMaxM2 microplate reader (Molecular Devices, Silicon Valley, CA, USA) with excitation/emission wavelengths set at 470/540 nm.

[2] = system: EPAC; conditions: cited from earlier work
[3] = target: T1, EPAC2; experiment: EPAC2 GEF activity, Rap1 nucleotide exchange (secondary confirmation assay); assay type: biochemical; conditions: 25 µM compound in the presence of 25 µM cAMP
Method: Measurement of in vitro guanine nucleotide exchange factor (GEF) activity of EPAC was adapted from a well known fluorescence-based assay using a fluorescent guanine nucleotide analog, and used as a functional confirmation assay for the compounds identified from primary screen. […] Exchange of Mant-GDP by GDP was measured as a decrease in fluorescence intensity over time using a FluoroMax-3 spectrofluorometer with excitation/emission wavelengths set at 366/450 nm. Typically, decay in the fluorescence intensity was recorded over a time course of 6000 s with data points taken every 60 s.

[4] = target: T2, type II PKA holoenzyme (Homo sapiens, UniProt P31323); experiment: Type II PKA holoenzyme kinase activity (counter screening assay); assay type: biochemical; conditions: 25 µM compound, 0.1 mM cAMP
T2 construct: made in house; host or cells: E. coli
T2 sequence (P31323 whole entry): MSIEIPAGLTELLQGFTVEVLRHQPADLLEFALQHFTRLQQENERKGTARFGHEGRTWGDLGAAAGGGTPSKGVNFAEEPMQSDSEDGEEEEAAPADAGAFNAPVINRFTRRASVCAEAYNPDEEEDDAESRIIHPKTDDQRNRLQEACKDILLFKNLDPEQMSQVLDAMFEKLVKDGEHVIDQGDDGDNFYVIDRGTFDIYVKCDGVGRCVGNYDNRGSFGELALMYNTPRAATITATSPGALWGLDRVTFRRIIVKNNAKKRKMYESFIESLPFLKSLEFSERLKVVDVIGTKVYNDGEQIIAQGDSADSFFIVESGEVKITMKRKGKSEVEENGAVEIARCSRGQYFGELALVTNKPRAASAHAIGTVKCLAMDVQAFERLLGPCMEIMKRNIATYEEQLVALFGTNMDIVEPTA
Method: (§1) Kinase activities of the type I and II PKA holoenzymes were measured spectrophotometrically in a 96-well plate with a coupled enzyme assay as described previously. In this assay, the formation of the ADP is coupled to the oxidation of NADH by the pyruvate kinase/lactate dehydrogenase reactions so the reaction rate can be determined by following the oxidation of NADH, reflected by a decrease in absorbance at 340 nm. […] Reactions were pre-equilibrated at room temperature and initiated by adding the Kemptide substrate (final concentration 0.26 mM). PKA activities measured in the presence of 25 µM H89, a selective PKA inhibitor, were used as positive controls of PKA inhibition.

[5] = target: T3, type I PKA holoenzyme (Homo sapiens, UniProt P10644); experiment: Type I PKA holoenzyme kinase activity (counter screening assay); assay type: biochemical; conditions: 25 µM compound, 0.1 mM cAMP
T3 construct: made in house; host or cells: E. coli
T3 sequence (P10644 whole entry): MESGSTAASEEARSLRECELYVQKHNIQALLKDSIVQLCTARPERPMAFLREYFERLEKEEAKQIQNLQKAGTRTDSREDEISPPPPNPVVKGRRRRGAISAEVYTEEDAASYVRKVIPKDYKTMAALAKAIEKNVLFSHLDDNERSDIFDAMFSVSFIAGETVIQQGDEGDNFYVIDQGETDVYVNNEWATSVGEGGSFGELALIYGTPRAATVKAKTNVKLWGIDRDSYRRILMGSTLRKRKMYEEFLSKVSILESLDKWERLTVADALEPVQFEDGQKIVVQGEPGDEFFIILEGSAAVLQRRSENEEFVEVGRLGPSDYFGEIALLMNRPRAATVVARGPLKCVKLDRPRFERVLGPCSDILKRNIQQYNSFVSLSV
Method: as §1

SMILES: Nc1ncnc2c1ncn2C1CC2OP(=O)(O)OCC2O1 (stereo not shown) [2′-deoxy-cAMP, reference compound]
dose response of EPAC2/8-NBD-cAMP fluorescence signal [1]: minimal effects

SMILES: CO[C@@H]1[C@@H]2OP(=O)(O)OC[C@H]2O[C@H]1n1c(Sc2ccc(Cl)cc2)nc2c(N)ncnc21 [8-CPT-2′-O-Me-cAMP, 8-(4-chloro-phenylthio)-2′-O-methyladenosine-3′,5′-cyclic monophosphate]
selectivity towards EPAC over PKA [2]: about 100 fold

SMILES: Nc1ncnc2c1nc(Cl)n2[C@@H]1O[C@@H]2COP(=O)(O)O[C@H]2[C@H]1O [8-Cl-cAMP, reference compound]
dose response of EPAC2/8-NBD-cAMP fluorescence signal [1]: significant dose-dependent inhibitions

More lines, main results first:

effect on cAMP-induced type II PKA holoenzyme activation [4]: did not significantly alter
IC50 [1]: 1.7 µM
effect on cAMP-induced type I PKA holoenzyme activation [5]: did not significantly alter
SMILES: O=C1C=Cc2ccccc2C1=NNc1cccc2cc(S(=O)(=O)O)ccc12 [NSC45576]
inhibition of cAMP-mediated EPAC2 GEF activity [3]: inhibit EPAC2 GEF activity to basal levels

type II PKA activity blocked [4]: ~50%
IC50 [1]: 3.8 µM
type I PKA activity blocked [5]: ~50%
SMILES: O=C1C=CC2=C(Oc3c(ccc(O)c3O)/C2=C/C=C(O)O)C1=O [NSC119911]
inhibition of cAMP-mediated EPAC2 GEF activity [3]: inhibit EPAC2 GEF activity to basal levels

effect on cAMP-induced type II PKA holoenzyme activation [4]: did not significantly alter
IC50 [1]: 7.9 µM
effect on cAMP-induced type I PKA holoenzyme activation [5]: did not significantly alter
SMILES: N#Cc1c(NC(=O)C(F)(F)F)sc2c3c(=O)c4ccccc4c(=O)c=3oc3ccccc3c12 [NSC686365]
inhibition of cAMP-mediated EPAC2 GEF activity [3]: inhibit EPAC2 GEF activity to basal levels

dose response of EPAC2/8-NBD-cAMP fluorescence signal [1]: minimal effects
SMILES: O=c1[nH]c(=O)c2ncn(C3OC4COP(=O)(O)OC4C3O)c2[nH]1 (stereo not shown) [cXMP, reference compound]
